A word on the TGI: it is the concentration giving total growth inhibition. Lower therefore signals more potent growth arrest. The term GI50 denotes the concentration that inhibits growth by half.

Consider 14 compounds from PubChem BioAssay (NCI).

Common to all, as to test: DTP human tumour cell line panel, 48 h
Experiment [1] relates to OVCAR-3 ovarian.
Experiment [2] has as its system RXF 393 renal.
The test system of experiment [3] is 786-0 renal.
The test system of experiment [4] is LOX IMVI melanoma.
The subject of experiment [5] is MALME-3M melanoma.
The test system of experiment [6] is HCC-2998 colon.
For experiment [7], the system named is SK-OV-3 ovarian.
Experiment [8] relates to UO-31 renal.
Experiment [9] relates to M14 melanoma.
For experiment [10], the system named is HS 578T breast.
For experiment [11], the system named is BT-549 breast.

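How tested: cells in 96-well plates exposed to compound for 48 hours at five concentrations. Here, GI50 denotes the concentration required for 50% inhibition of growth. TGI is the concentration that stops growth completely.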

As for `C=C1CN2CCc3c([nH]c4ccccc34)C2CC1CC(=O)N(C)C` (centres undefined), the concentration for total growth inhibition (TGI) in experiment [1], in experiment [2], in [3], in experiment [4], in experiment [5] and in experiment [6] was over 309 µM each time. This compound also registered a TGI in [7] of over 309 µM.
For `CC1CCc2c(sc3ncnc(N/N=C/c4ccc(Cl)cc4)c23)C1` (centres undefined), the TGI in [1] is over 100 µM; in experiment [2], 91.2 µM; in experiment [8], 29.7 µM; in experiment [9] it was 68.2 µM; in experiment [3], over 100 µM; in experiment [4], 70.6 µM. Further, the TGI in [5], in [6] and in experiment [7] was over 100 µM each time.
As for `Cc1cc(N=Cc2c(CO)cnc(C)c2O)c(N=Cc2c(CO)cnc(C)c2O)cc1C`, the TGI in [1], in [2], in experiment [10], in experiment [9], in [3] and in experiment [4] was over 100 µM each time. The total growth inhibition concentration (TGI) in [5], in [6] and in experiment [7] was over 100 µM throughout.
Turning to `Nc1ncnc2c1ccn2-c1cccc(NC(=O)c2ccc(N3CCOCC3)c(C(F)(F)F)c2)c1`, the GI50 is 3.04 µM in [1]; 2.05 µM in experiment [2]; 2.8 µM in experiment [8]; 1.83 µM in [10]; 3.33 µM in experiment [9]; 3.1 µM in experiment [4]. Further, the GI50 in experiment [5] was 3.08 µM; in experiment [6] it was 4.6 µM. In addition, the total growth inhibition concentration (TGI) was determined as 11.4 µM in experiment [1]; 5.1 µM in experiment [2]; 6.73 µM in experiment [8]; 6.03 µM in [10]; 10.6 µM in experiment [9]; 12.7 µM in experiment [4]. The TGI stood at 13.2 µM in experiment [5] and 19.6 µM in [6].
`Cn1c(=O)n(C2(C)CSC2)c2ccccc21`: the TGI in experiment [2], in experiment [8], in [9], in experiment [3], in [4] and in experiment [6] was over 100 µM each time. Moreover, the TGI in [7] was over 100 µM.
In the case of `N#C/C(=C\c1ccc[nH]1)C(=O)c1ccccc1`, the TGI in [1], in experiment [2], in experiment [8], in experiment [9], in experiment [3] and in [4] was over 100 µM each time. Also, the TGI in [5], in experiment [6] and in experiment [7] was over 100 µM throughout.
As for `O=C(O)c1ccc(Nc2cnc3cc(C(F)(F)F)ccc3n2)cc1`, the TGI in experiment [1], in experiment [2], in experiment [8], in experiment [10], in [3] and in experiment [4] was over 100 µM each time. In addition, the TGI is over 100 µM in experiment [5] and 80.7 µM in experiment [6].
As to `COc1ccc(-c2cc(=O)c3cc(O)ccc3o2)c(OC)c1OC`, the TGI was 46.3 µM in [1]; 89.4 µM in experiment [2]; over 100 µM in experiment [9]; over 100 µM in experiment [3]; 57.1 µM in experiment [4]; over 100 µM in experiment [5]. Moreover, the concentration for total growth inhibition (TGI) in experiment [6] was over 100 µM; in experiment [7] it was 99.1 µM.
As to `COC(=O)c1c2c(cc3c1CC1(C3)Cc3cc4c(c(C(=O)OC)c3C1)CCC4)CCC2`, the total growth inhibition concentration (TGI) in experiment [1] was over 100 µM; in experiment [2], over 100 µM; in [8] it was 28.4 µM; in [10], over 100 µM; in experiment [9], over 100 µM; in [3] it was over 100 µM. For the same compound, the TGI in [4], in experiment [5], in [6] and in experiment [7] was over 100 µM each time.
Turning to `COc1cccc(/C=N/[N-]C(N)=O)c1[O-].[Co+2].[OH3+].c1ccncc1`, the TGI in [1], in experiment [2], in experiment [8], in experiment [9], in experiment [3] and in [4] was over 100 µM in each case. Further, the TGI in [5], in experiment [6] and in experiment [7] was over 100 µM throughout.
On to `COc1ccc(CNc2nc3cc(C(F)(F)F)ccc3nc2C(=O)O)cc1`, for which the TGI in [1] is 34.1 µM; in [8], 42.5 µM; in experiment [9], 58.1 µM; in [3] it was 63.2 µM; in [11], 69.6 µM; in [4], 44.3 µM. In addition, the total growth inhibition concentration (TGI) was 71.3 µM in [6] and over 100 µM in [7].
For `C=C(C)CCC(O)[C@](C)(O)[C@H]1[C@H](O)C[C@@]2(C)[C@@H]3CCc4c(cc(OC5OC(CO)C(O)C(O)C5O)c(O)c4C)C3(C)C(=O)C[C@]12C` (some centres undefined), the TGI in experiment [1], in [2], in [8], in experiment [9], in experiment [3] and in experiment [11] was over 100 µM in each case. Further, the concentration for total growth inhibition (TGI) in experiment [4], in experiment [5], in experiment [6] and in [7] was over 100 µM throughout.
Take `COc1cc(OC)c(/C=N\Nc2nc3ccccc3c(=O)n2-c2ccccc2)c(OC)c1`: the TGI is 50.9 µM in experiment [1]; 55 µM in [2]; over 81.4 µM in experiment [8]; 84.6 µM in experiment [9]; 37.6 µM in [3]; 69.6 µM in experiment [4]. For the same compound, the TGI in experiment [5] is 79.3 µM; in experiment [6], over 100 µM; in experiment [7] it was 77.6 µM.
For the compound `NC1NCCC(=O)N1CCc1c[nH]c2ccccc12` (centres undefined), the total growth inhibition concentration (TGI) was 48.4 µM in [1]; 43.5 µM in experiment [2]; over 100 µM in experiment [8]; 55.2 µM in [10]; 33.3 µM in experiment [9]; 37.6 µM in [3]. Besides, the TGI in experiment [4] is 30.2 µM; in [5], 40.1 µM; in [6], 35.2 µM; in experiment [7], over 100 µM.
